The test has as its target T1, Recombinant human renin (Homo sapiens, UniProt P00797).
T1 sequence (P00797 67-406): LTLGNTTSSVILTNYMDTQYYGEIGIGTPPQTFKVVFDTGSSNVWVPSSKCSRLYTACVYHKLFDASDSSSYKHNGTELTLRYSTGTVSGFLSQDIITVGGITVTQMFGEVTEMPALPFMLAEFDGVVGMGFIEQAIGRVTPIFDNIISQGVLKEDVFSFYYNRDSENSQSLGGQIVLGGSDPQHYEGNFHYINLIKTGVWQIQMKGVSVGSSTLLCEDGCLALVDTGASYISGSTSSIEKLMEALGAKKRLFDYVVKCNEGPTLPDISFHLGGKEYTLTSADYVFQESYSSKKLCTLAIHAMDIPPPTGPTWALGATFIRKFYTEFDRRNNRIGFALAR
As to the kind of experiment: Inhibitory activity against human renin (fluorogenic peptide substrate). Type of test: biochemical. The note with it: 37° C. for 1 hour. The method, then:
Inhibitory Activity Against Human Renin
A substrate of synthetic peptide (Nma-KHPFH LVIHK(Dnp)-NH2) and test compound were mixed, and fluorescence intensity was assayed using a fluorophotometer before starting an enzymatic reaction (exciting wavelength: 340 nm, measuring wavelength: 460 nm). Recombinant human renin was added and the mixture was incubated at 37° C. for 1 hour, and the fluorescence intensity was measured after the reaction using a fluorophotometer (exciting wavelength: 340 nm, measuring wavelength: 460 nm).

[1] abbreviates: 50% inhibitory concentration (IC50) against human renin.

Where two headings read alike, the source gives them in different places.

The IC50 is the concentration that inhibits the measured activity by half. In the case of `COC(=O)NCCCc1nc([C@@H](C)N(C(=O)[C@H]2CNCCO2)C2CC2)cnc1N(C)C` [Example 442], the IC50 under setting [1] is 9.5 nM.
For `COCCCOc1cc([C@@H](C)N(C(=O)[C@H]2CNCCO2)C2CC2)cc2c1OCCC2` [Example 19], the IC50 (read-out: IC50) came out at 2.4 nM.
Consider `COC(=O)NCCCn1cc([C@@H](C)N(C(=O)[C@H]2CNC[C@@H](C)O2)C2CC2)nc1-c1ccccc1` [Example 202], for which the IC50 under setting [1] was 0.2 nM.
Consider `COC(=O)NCCCc1cc(C(C)N(C(=O)[C@H]2CNC[C@@H](C)O2)C2CC2)nn1-c1ccccc1C(F)(F)F` (some centres unmarked) [Example 350], for which the IC50 under setting [1] is 1.9 nM.
For the molecule `COC(=O)NCCCc1cc([C@@H](C)N(C(=O)[C@H]2CNCCO2)C2CC2)cc(Cl)n1` [Example 98], the IC50 (read-out: IC50) was 2.8 nM.
Turning to `COC(=O)NCCCc1cc([C@@H](C)N(C(=O)[C@H]2CNCCO2)C2CC2)sc1-c1ccccc1O` [Example 264], under setting [1], the IC50 was 1.1 nM.
As to `COC(=O)NCCCc1cc([C@@H](C)N(C(=O)[C@H]2CNCCO2)C2CC2)cc(C(C)C)n1` [Example 99], for the setting “read-out: IC50”, the IC50 is 1.8 nM.
As to `COC(=O)NCCCc1cc(C(C)N(C(=O)[C@H]2CNCCO2)C2CC2)cnc1O[C@H]1CCOC1` (some centres unmarked) [Example 440], the IC50 under setting [1] stood at 1.9 nM.
The same measure, in the same setting: as for `COC(=O)NCCCc1cc([C@@H](C)N(C(=O)[C@H]2CNCCO2)C2CC2)ncc1OC` [Example 121], the figure is 5.4 nM.
The same measure, in the same setting: the value for `COC(=O)NCCCc1cc([C@@H](C)N(C(=O)[C@H]2CNCCO2)C2CC2)sc1-c1cccc(C)n1` [Example 226] was 0.3 nM; that for `CCCCCn1cc([C@@H](C)N(C(=O)[C@H]2CNCCO2)C2CC2)nc1-c1ccccc1` [Example 200] was 4.5 nM.
With `COCCCCn1cc([C@@H](C)N(C(=O)[C@H]2CNCCO2)C2CC2)c2cnc(C)nc21` [Example 103], the IC50 (read-out: IC50) was found to be 2.1 nM.
As for `CNC(=O)NCCCn1nc([C@@H](C)N(C(=O)[C@H]2CNCCO2)C2CC2)c2ccc(C)cc21` [Example 28], where the note is “read-out: IC50”, the IC50 came out at 7.1 nM.
For `COC(=O)NCCCn1cc([C@H](C)N(C(=O)[C@H]2CNCCO2)C2CC2)nc1Oc1ccccc1` [Example 313], the IC50 under setting [1] came to 2.5 nM.
Turning to `COC[C@@H]1CNC[C@H](C(=O)N(C2CC2)[C@@H](C)c2cnc(OC)c(CCCNC(=O)OC)c2)O1` [Example 310], under setting [1], the IC50 came out at 0.4 nM.
In the case of `CCOC[C@H]1CO[C@@H](C(=O)N(C2CC2)[C@H](C)c2nn(CCCNC(=O)OC)c3nc(C)ccc23)CN1` [Example 273], the IC50 under setting [1] was determined as 1 nM.
Consider `COCCCc1nn(C)c2ccc([C@@H](C)N(C(=O)[C@H]3CNCCO3)C3CC3)cc12` [Example 26], for which the IC50 (read-out: IC50) stood at 3.4 nM.
In the case of `COCCCc1cn(C)c2ccc([C@@H](C)N(C(=O)[C@H]3CNCCO3)C3CC3)cc12` [Example 48], the IC50 (read-out: IC50) worked out at 1.5 nM.
In the case of `COC(=O)NCCCc1cc([C@H](C)N(C(=O)[C@H]2CNCCO2)C2CC2)cnc1C(C)C` [Example 315], the IC50 under setting [1] was 1 nM.
Same read-out and setting: as for `COC[C@H]1CO[C@@H](C(=O)N(C2CC2)[C@H](C)c2cc(CCCNC(=O)OC)n(-c3ccccc3)n2)CN1` [Example 283], the figure is 0.9 nM; as for `COC(=O)NCCCc1cc([C@@H](C)N(C(=O)[C@H]2CNCCO2)C2CC2)cnc1-c1ccccc1` [Example 128], 1.4 nM.
For the molecule `COC(=O)NCCCc1cc([C@@H](C)N(C(=O)[C@H]2CNC[C@@H](C)O2)C2CC2)nn1-c1cccc(C(F)(F)F)c1` [Example 349], under setting [1], the half-inhibitory concentration (IC50) is 1.1 nM.
`COc1ccc([C@@H](C)N(C(=O)[C@H]2CNCCO2)C2CC2)cc1CCCNC(C)=O` [Example 27]: where the note is “read-out: IC50”, the IC50 is 8.3 nM.
On to `COC[C@H]1CO[C@@H](C(=O)N(C2CC2)[C@H](C)c2nn(CCCNC(=O)OC)c3nc(C)ccc23)CN1` [Example 261], for which the IC50 under setting [1] is 0.7 nM.
On to `COC(=O)NCCCc1cc([C@@H](C)N(C(=O)[C@H]2CNCCO2)C2CC2)nn1C(C)(C)C` [Example 213], for which, under setting [1], the IC50 turned out to be 0.3 nM.
Same read-out and setting: the value for `COC[C@H]1CO[C@@H](C(=O)N(C2CC2)[C@H](C)c2cn(CCCNC(=O)OC)c(-c3ccc(F)cc3)n2)CN1` [Example 279] was 0.5 nM.
For `COCCCCn1cc([C@@H](C)N(C(=O)[C@H]2CNCCO2)C2CC2)c2ncc(OC)cc21` [Example 40], the IC50 (read-out: IC50) was 0.7 nM.
`C[C@H](c1cn(Cc2ccccc2)c(-c2ccccc2)n1)N(C(=O)[C@H]1CNCCO1)C1CC1` [Example 194]: under setting [1], the IC50 was 3 nM.
Same read-out and setting: as for `COC(=O)NCCCn1nc([C@@H](C)N(C(=O)[C@H]2CNCCO2)C2CC2)cc1-c1ncccc1F` [Example 185], the figure is 0.3 nM.
In the case of `COc1ccc([C@@H](C)N(C(=O)[C@H]2CNCCO2)C2CC2)cc1CCCNC(=O)C(F)(F)F` [Example 67], the IC50 (read-out: IC50) was 8.9 nM.
As for `COC(=O)NCCCn1cc([C@@H](C)N(C(=O)[C@H]2CNC[C@@H](CF)O2)C2CC2)nc1C1CCOCC1` [Example 404], the concentration for half-maximal inhibition (IC50) under setting [1] came to 0.7 nM.
On to `COCCCN1C(=O)C(C)(C)c2ccc([C@@H](C)N(C(=O)[C@H]3CNCCO3)C3CC3)cc21` [Example 45], for which, where the note is “read-out: IC50”, the IC50 was 3.4 nM.
For the molecule `COCCCCc1cc([C@@H](C)N(C(=O)[C@H]2CNCCO2)C2CC2)nn1-c1ccccc1` [Example 232], under setting [1], the IC50 is 0.6 nM.
Take `CCc1cc([C@@H](C)N(C(=O)[C@H]2CNCCO2)C2CC2)cc(CCCCOC)n1` [Example 112]: the IC50 (read-out: IC50) was found to be 2 nM.
In the case of `COC(=O)NCCCn1cc([C@@H](C)N(C(=O)[C@H]2CNCCO2)C2CC2)c2ncc(Br)cc21` [Example 114], the IC50 under setting [1] was found to be 1.1 nM.
On to `COC(=O)NCCCn1nc([C@@H](C)N(C(=O)[C@H]2CNCCO2)C2CC2)c2ncc(C)cc21` [Example 70], for which the IC50 (read-out: IC50) came out at 1 nM.
As for `COC(=O)NC/C=C/c1cc([C@@H](C)N(C(=O)[C@H]2CNC[C@@H](C)O2)C2CC2)nn1-c1ccc(C(F)(F)F)cc1` [Example 356], the IC50 under setting [1] was 5.1 nM.
For the molecule `COC(=O)NCCCn1cc([C@@H](C)N(C(=O)[C@H]2CNCCO2)C2CC2)c2ncc(C)nc21` [Example 102], for the setting “read-out: IC50”, the IC50 was found to be 0.4 nM.
As to `COCCCCn1cc([C@@H](C)N(C(=O)[C@H]2CNCCO2)C2CC2)c2ncc(C)nc21` [Example 93], where the note is “read-out: IC50”, the IC50 came out at 1.6 nM.
In the case of `COC(=O)NCCCc1cc([C@H](C)N(C(=O)[C@H]2CNC[C@@H](CC#N)O2)C2CC2)cc(OC)n1` [Example 316], the 50% inhibitory concentration (IC50) under setting [1] was found to be 1.4 nM.
The same measure, in the same setting: the value for `COCCCc1cc([C@@H](C)N(C(=O)[C@H]2CNC[C@@H](COC)O2)C2CC2)cc(CCCNC(=O)OC)n1` [Example 382] was 3.6 nM; that for `COCCCn1cc(COC)c2c(C(C)C)nc([C@@H](C)N(C(=O)[C@H]3CNCCO3)C3CC3)cc21` [Example 153] was 2.2 nM; that for `COC[C@H]1CO[C@@H](C(=O)N(C2CC2)[C@H](C)c2cn(CCCNC(=O)OC)c3ncccc23)CN1` [Example 295] was 1.5 nM.
The same measure, in the same setting: the value for `COC(=O)NCCCn1cc([C@@H](C)N(C(=O)[C@H]2CNCCO2)C2CC2)nc1-c1cccc(F)c1` [Example 165] was 0.6 nM; that for `COC(=O)NCCCc1nc([C@@H](C)N(C(=O)[C@H]2CNCCO2)C2CC2)sc1-c1ccccc1C(=O)OC` [Example 414] was 2.8 nM.
`COC(=O)NC/C=C/c1cc([C@@H](C)N(C(=O)[C@H]2CN[C@@H](C)CO2)C2CC2)nn1-c1ccccc1` [Example 358]: the IC50 under setting [1] was 5.7 nM.
Same read-out and setting: the value for `COCCCCc1cc([C@@H](C)N(C(=O)[C@H]2CNC[C@@H](COC)O2)C2CC2)cc(OC)n1` [Example 304] was 0.7 nM; that for `COC(=O)NCCCc1cc([C@@H](C)N(C(=O)[C@H]2CN[C@@H](C)CO2)C2CC2)nn1-c1ccccc1` [Example 355] was 0.8 nM; that for `COC(=O)NCCCc1cc(C(C)N(C(=O)[C@H]2CNCCO2)C2CC2)sc1C(C)C(F)(F)F` (some centres unmarked) [Example 405] was 3.9 nM.
In the case of `COC(=O)NCCCc1nc(C(C)N(C(=O)[C@H]2CNCCO2)C2CC2)sc1-c1cccnc1` (some centres unmarked) [Example 403], under setting [1], the IC50 amounted to 3.1 nM.
For `COC(=O)NCCCc1cc([C@@H](C)N(C(=O)[C@H]2CNCCO2)C2CC2)sc1-c1ccccc1CNS(=O)(=O)CC(F)(F)F` [Example 286], the IC50 under setting [1] came to 0.4 nM.
The same measure, in the same setting: as for `COC(=O)NCCCc1cc([C@@H](C)N(C(=O)[C@H]2CNCCO2)C2CC2)cnc1O[C@H]1CCOC1` [Example 443], the figure is 2 nM; as for `COC(=O)NCCCc1cc([C@H](C)N(C(=O)[C@H]2CNC[C@@H](CN(C)C)O2)C2CC2)cc(OC)n1` [Example 321], 5.6 nM.
On the same count and under the same terms, the value for `CCc1nc([C@@H](C)N(C(=O)[C@H]2CNCCO2)C2CC2)cc2c1c(C#N)cn2CCCOC` [Example 161] was 0.7 nM; that for `COC(=O)NCCCn1cc([C@H](C)N(C(=O)[C@H]2CN[C@@H](CCF)CO2)C2CC2)nc1OC(C)C` [Example 341] was 0.3 nM.
Consider `CCOc1ncc(C(C)N(C(=O)[C@H]2CNC[C@@H](COC)O2)C2CC2)nc1CCCNC(=O)OC` (some centres unmarked) [Example 398], for which the IC50 under setting [1] is 5.1 nM.
For `COC(=O)NCCCc1cc([C@@H](C)N(C(=O)[C@H]2CNCCO2)C2CC2)nc2ccc(OC)cc12` [Example 141], the IC50 under setting [1] is 0.5 nM.
For the molecule `COC(=O)NCCCc1cc([C@@H](C)N(C(=O)[C@H]2CNCCO2)C2CC2)sc1-c1cnn(C)c1` [Example 240], the IC50 under setting [1] turned out to be 0.2 nM.
On to `COC(=O)NCCCc1cc([C@@H](C)N(C(=O)[C@H]2CNC[C@@H](C)O2)C2CC2)nn1-c1ccc(C(F)(F)F)cc1` [Example 354], for which, under setting [1], the IC50 was determined as 1.4 nM.

These data come from patent US9556159B2, “Renin inhibitor” (MITSUBISHI TANABE PHARMA CORPORATION, priority 2012, dated 2017).
